Where a name gives a salt, the structure may show the parent alone. Read-outs that look alike come from different tables or passages of the source.
Assays:
Assay type in all cases: biochemical
[1] = biological target: T1, recombinant PRL-3 (Homo sapiens, UniProt O75365); assay: In vitro phosphatase assay (DiFMUP hydrolysis), PRL-3; further: test concentration or dose not given here
T1 construct: 6xHis (N, cleaved yes); made in house; host or cells: E. coli One Shot BL21 Star

[2] = biological target: T2, recombinant PRL-1 (Homo sapiens, UniProt Q93096); assay: In vitro phosphatase assay (DiFMUP hydrolysis), PRL-1; further: test concentration or dose not given here
T2 construct: 6xHis (N, cleaved yes); made in house; host or cells: E. coli One Shot BL21 Star
T2 sequence (Q93096 1-173): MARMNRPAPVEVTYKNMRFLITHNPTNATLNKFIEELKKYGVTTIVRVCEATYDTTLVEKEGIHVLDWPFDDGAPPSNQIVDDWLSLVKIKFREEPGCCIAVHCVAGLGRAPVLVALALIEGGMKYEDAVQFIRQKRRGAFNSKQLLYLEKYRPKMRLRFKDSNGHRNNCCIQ

[3] = biological target: T3, recombinant PRL-2 (Homo sapiens, UniProt Q12974); assay: In vitro phosphatase assay (DiFMUP hydrolysis), PRL-2;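 further: PRL-2 activity read as DiFMUP hydrolysis after 20 min at room temperature with drug, enzyme first pre-reduced at 4 °C for 20 min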
T3 construct: 6xHis (N, cleaved yes); made in house; host or cells: E. coli One Shot BL21 Star
T3 sequence (Q12974 1-167): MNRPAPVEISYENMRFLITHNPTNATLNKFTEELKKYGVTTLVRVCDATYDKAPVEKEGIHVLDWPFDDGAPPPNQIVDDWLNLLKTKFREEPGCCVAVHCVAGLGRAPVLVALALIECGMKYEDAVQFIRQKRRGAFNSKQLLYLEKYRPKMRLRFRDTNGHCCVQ

[4] = FDA-approved drug screen, compared to DMSO

T1 sequence (O75365 whole entry): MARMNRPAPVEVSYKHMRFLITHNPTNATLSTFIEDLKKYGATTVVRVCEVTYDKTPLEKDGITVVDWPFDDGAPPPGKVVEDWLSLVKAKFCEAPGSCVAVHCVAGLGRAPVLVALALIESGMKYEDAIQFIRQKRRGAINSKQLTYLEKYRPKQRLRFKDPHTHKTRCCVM

Structure (SMILES) | % Phosphatase Activity (compared to DMSO) PRL-3 [1, 4] [%] | % Phosphatase Activity (compared to DMSO) PRL-1 [2, 4] [%] | % Phosphatase Activity (compared to DMSO) PRL-2 [3, 4] [%] | % Phosphatase Activity (compared to DMSO) PRL-3 [1] [%] | % Phosphatase Activity (compared to DMSO) PRL-1 [2] [%] | % Phosphatase Activity (compared to DMSO) PRL-2 [3] [%]
O=C1CC[C@@]2(O)[C@H]3Cc4ccc(O)c5c4[C@@]2(CCN3CC2CC2)[C@H]1O5 [Naltrexone HCl] | 95 | 100 | 120 |  |  | 
CCCCCCCCCC(=O)O[C@H]1CC[C@H]2[C@@H]3CCC4=CC(=O)CC[C@@H]4[C@H]3CC[C@]12C [Nandrolone decanoate] | 90 | 93 | 94 |  |  | 
C[C@]12CC[C@H]3[C@@H](CCC4=CC(=O)CC[C@@H]43)[C@@H]1CC[C@@H]2O [Nandrolone] |  |  |  | 78 | 93 | 93
c1ccc2c(CC3=NCCN3)cccc2c1 [Naphazoline HCl] | 83 | 100 | 102 |  |  | 
CNS(=O)(=O)CCc1ccc2[nH]cc(C3CCN(C)CC3)c2c1 [Naratriptan] | 90 | 103 | 86 |  |  | 
C[C@@H]1C/C=C/C=C/C=C/C=C/[C@H](O[C@@H]2O[C@H](C)[C@@H](O)[C@H](N)[C@@H]2O)C[C@@H]2O[C@](O)(C[C@@H](O)C[C@H]3O[C@@H]3/C=C/C(=O)O1)C[C@H](O)[C@H]2C(=O)O [Natamycin] | 78 | 96 | 82 |  |  | 
CC(C)[C@H]1CC[C@H](C(=O)N[C@H](Cc2ccccc2)C(=O)O)CC1 [Nateglinide] | 73 | 92 | 90 |  |  | 
OC(CNCC(O)C1CCc2cc(F)ccc2O1)C1CCc2cc(F)ccc2O1 (stereo not drawn) [Nebivolol] | 87 | 105 | 81 |  |  | 
[NH2][Pt]1([NH2])[O]CC(=O)[O]1 [Nedaplatin] | 94 | 102 | 97 |  |  | 
Cc1cccc(C)c1NC(=O)CN1CCCC1=O [Nefiracetam] | 88 | 94 | 95 |  |  | 
CN1CCOC(c2ccccc2)c2ccccc2C1 (stereo not drawn) [Nefopam HCl] | 101 | 108 | 87 |  |  | 
COc1nc(N)nc2c1ncn2[C@@H]1O[C@H](CO)[C@@H](O)[C@@H]1O [Nelarabine] |  |  |  | 79 | 93 | 108
Cc1c(O)cccc1C(=O)N[C@@H](CSc1ccccc1)[C@H](O)CN1C[C@H]2CCCC[C@H]2C[C@H]1C(=O)NC(C)(C)C [Nelfinavir Mesylate] | 79 | 102 | 91 |  |  | 
NC[C@@H]1O[C@H](O[C@H]2[C@@H](O)[C@H](O[C@@H]3[C@@H](O)[C@H](N)C[C@H](N)[C@H]3O[C@H]3O[C@H](CN)[C@@H](O)[C@H](O)[C@H]3N)O[C@@H]2CO)[C@H](N)[C@@H](O)[C@@H]1O.O=S(=O)(O)O [Neomycin sulfate] | 86 | 98 | 103 |  |  | 
NC(=O)Cc1cccc(C(=O)c2ccccc2)c1N [Nepafenac] | 72 | 96 | 93 |  |  | 
CCOc1cc2ncc(C#N)c(Nc3ccc(OCc4ccccn4)c(Cl)c3)c2cc1NC(=O)/C=C/CN(C)C [Neratinib (HKI-272)] | 91 | 110 | 111 |  |  | 

Structure (SMILES) | % Phosphatase Activity (compared to DMSO) PRL-3 [1, 4] [%] | % Phosphatase Activity (compared to DMSO) PRL-1 [2, 4] [%] | % Phosphatase Activity (compared to DMSO) PRL-2 [3, 4] [%] | % Phosphatase Activity (compared to DMSO) PRL-3 [1] [%] | % Phosphatase Activity (compared to DMSO) PRL-1 [2] [%] | % Phosphatase Activity (compared to DMSO) PRL-2 [3] [%]
CCN[C@@H]1C[C@H](N)[C@@H](O[C@H]2OC(CN)=CC[C@H]2N)[C@H](O)[C@H]1O[C@H]1OC[C@](C)(O)[C@H](NC)[C@H]1O.CCN[C@@H]1C[C@H](N)[C@@H](O[C@H]2OC(CN)=CC[C@H]2N)[C@H](O)[C@H]1O[C@H]1OC[C@](C)(O)[C@H](NC)[C@H]1O.O=S(=O)(O)O.O=S(=O)(O)O.O=S(=O)(O)O.O=S(=O)(O)O.O=S(=O)(O)O [Netilmicin Sulfate] | 111 | 86 | 110 |  |  | 
Cc1ccnc2c1NC(=O)c1cccnc1N2C1CC1 [Nevirapine] | 111 | 85 | 101 |  |  | 
O=C(CCNNC(=O)c1ccncc1)NCc1ccccc1 [Nialamide] | 96 | 95 | 100 |  |  | 
COC(=O)C1=C(C)NC(C)=C(C(=O)OCCN(C)Cc2ccccc2)C1c1cccc([N+](=O)[O-])c1 (stereo not drawn) [Nicardipine HCl] | 68 | 85 | 80 |  |  | 
O=C(NCCO[N+](=O)[O-])c1cccnc1 [Nicorandil] | 91 | 86 | 103 |  |  | 
NC(=O)c1cccnc1 [Nicotinamide (Vitamin B3)] | 98 | 88 | 95 |  |  | 
CN1CCC[C@H]1c1cccnc1.O=C(O)C(O)C(O)C(=O)O.O=C(O)C(O)C(O)C(=O)O [Nicotine Ditartrate] |  |  |  | 96 | 95 | 96
O=C(O)c1cccnc1 [Nicotinic Acid] |  |  |  | 91 | 95 | 94
Cc1c(NC(=O)c2cccnc2)c(=O)n(-c2ccccc2)n1C [Nifenazone] | 92 | 91 | 105 |  |  | 
O=C(O)c1cccnc1Nc1cccc(C(F)(F)F)c1 [Niflumic acid] | 88 | 109 | 112 |  |  | 
O=C(N/N=C/c1ccc([N+](=O)[O-])o1)c1ccc(O)cc1 [Nifuroxazide] | 57 | 68 | 62 |  |  | 
Cc1cn(-c2cc(NC(=O)c3ccc(C)c(Nc4nccc(-c5cccnc5)n4)c3)cc(C(F)(F)F)c2)cn1 [Nilotinib (AMN-107)] | 76 | 83 | 92 |  |  | 
COC(=O)C1=C(C#N)NC(C)=C(C(=O)OC(C)C)C1c1cccc([N+](=O)[O-])c1 (stereo not drawn) [Nilvadipine] | 87 | 88 | 82 |  |  | 
CS(=O)(=O)Nc1ccc([N+](=O)[O-])cc1Oc1ccccc1 [Nimesulide] |  |  |  | 85 | 78 | 83
COCCOC(=O)C1=C(C)NC(C)=C(C(=O)OC(C)C)C1c1cccc([N+](=O)[O-])c1 (stereo not drawn) [Nimodipine] | 88 | 76 | 72 |  |  | 
COC(=O)c1ccc2c(c1)NC(=O)/C2=C(\Nc1ccc(N(C)C(=O)CN2CCN(C)CC2)cc1)c1ccccc1 [Nintedanib (BIBF 1120)] | 73 | 92 | 106 |  |  | 

Source: article PMC8119466, “A screen of FDA-approved drugs identifies inhibitors of protein tyrosine phosphatase 4A3 (PTP4A3 or PRL-3)” (Scientific Reports, 2021)
